This assay addresses T1, Recombinant human renin (Homo sapiens, UniProt P00797).
T1 construct: isolate the active form (residues 67-406); made in house; host or cells: FreeStyle 293-F cells, transient expression of pcDNA3.1(+)/hREN
T1 sequence (P00797 67-406): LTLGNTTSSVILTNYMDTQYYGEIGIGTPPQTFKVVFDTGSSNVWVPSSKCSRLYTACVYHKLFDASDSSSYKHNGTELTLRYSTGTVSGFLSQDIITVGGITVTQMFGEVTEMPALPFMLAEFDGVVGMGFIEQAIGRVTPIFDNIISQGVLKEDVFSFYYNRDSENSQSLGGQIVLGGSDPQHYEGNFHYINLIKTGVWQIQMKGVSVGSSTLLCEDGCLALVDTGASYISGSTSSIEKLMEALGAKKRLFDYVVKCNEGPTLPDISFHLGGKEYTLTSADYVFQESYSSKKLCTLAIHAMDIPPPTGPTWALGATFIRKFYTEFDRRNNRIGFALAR
In words: In vitro enzymatic activity assay of renin inhibitors (fluorescence, QXL520/HiLyteFluo488 peptide substrate). Type of assay: biochemical. The conditions noted are these: recombinant human renin 3 nM, 1 μM substrate, pre-incubated 10 minutes at 37° C., incubation one hour, pH 7.4, 5% DMSO; read-out: IC50 of Exemplified Compounds Against Renin.

Experimental findings from patent US8148367B2 (Takeda Pharmaceutical Company Limited, priority 2008, dated 2012) are described below.

For `COCCCOc1cccc(-n2c(-c3cccc(Cl)c3)c(C(=O)N3CCNCC3)[nH]c2=O)c1` [Example 42, 5-(3-Chlorophenyl)-1-(3-(3-methoxypropoxy)phenyl)-4-(piperazine-1-carbonyl)-1H-imidazol-2(3H)-one], the IC50 (commonly the midpoint of a concentration-inhibition curve) is above 1000 nM.

As for `COCCOc1cccc(-n2c(-c3cccc(Cl)c3)c(C(=O)N3CCNCC3)[nH]c2=O)c1` [Example 43, 5-(3-Chlorophenyl)-1-(3-(2-methoxyethoxy)phenyl)-4-(piperazine-1-carbonyl)-1H-imidazol-2(3H)-one], the 50% inhibitory concentration (IC50) is above 1000 nM.

As to `O=C(c1[nH]c(=O)n(-c2nc3ccccc3[nH]2)c1-c1ccccc1)N1CCNCC1` [Example 44, 1-(1H-benzo[d]imidazol-2-yl)-5-phenyl-4-(piperazine-1-carbonyl)-1H-imidazol-2(3H)-one], the half-inhibitory concentration (IC50) was above 1000 nM.

For the molecule `O=C(c1c(-c2ccccc2)n(-c2ccccc2)c(=O)n1Cc1ccccc1)N1CCNCC1` [Example 45, 1-Benzyl-3,4-diphenyl-5-(piperazine-1-carbonyl)-1H-imidazol-2(3H)-one], the IC50 was in the range of 100 to 500 nM.

`O=C(c1c(-c2ccccc2)n(-c2ccccn2)c(=O)n1Cc1ccccc1)N1CCNCC1` [Example 46, 1-Benzyl-4-phenyl-5-(piperazine-1-carbonyl)-3-(pyridin-2-yl)-1H-imidazol-2(3H)-one]: the IC50 is above 1000 nM.

As for `Cc1cc(Cn2c(C(=O)N3CCNCC3)c(-c3ccccc3)n(-c3ccccc3)c2=O)no1` [Example 47, 1-((5-Methylisoxazol-3-yl)methyl)-3,4-diphenyl-5-(piperazine-1-carbonyl)-1H-imidazol-2(3H)-one], the IC50 is above 1000 nM.

Turning to `O=C(c1c(-c2ccccc2)n(-c2ccccc2)c(=O)n1Cc1nnc(C2CC2)s1)N1CCNCC1` [Example 48, 1-((5-Cyclopropyl-1,3,4-thiadiazol-2-yl)methyl)-3,4-diphenyl-5-(piperazine-1-carbonyl)-1H-imidazol-2(3H)-one], the IC50 was above 1000 nM.

For `O=C(c1c(-c2ccccc2)n(-c2ccccc2)c(=O)n1Cc1c[nH]cn1)N1CCNCC1` [Example 49, 1-((1H-Imidazol-4-yl)methyl)-3,4-diphenyl-5-(piperazine-1-carbonyl)-1H-imidazol-2(3H)-one], the IC50 was above 1000 nM.

For the molecule `Nc1nc(Cn2c(C(=O)N3CCNCC3)c(-c3ccccc3)n(-c3ccccc3)c2=O)cs1` [Example 50, 1-((2-Aminothiazol-4-yl)methyl)-3,4-diphenyl-5-(piperazine-1-carbonyl)-1H-imidazol-2(3H)-one], the IC50 was 500 to 1000 nM.

As for `O=C(c1c(-c2ccccc2)n(-c2ccccc2)c(=O)n1Cc1cccc(F)c1)N1CCNCC1` [Example 51, 1-(3-Fluorobenzyl)-3,4-diphenyl-5-(piperazine-1-carbonyl)-1H-imidazol-2(3H)-one], the IC50 was in the range of 100 to 500 nM.

Take `O=C(c1c(-c2ccccc2)n(-c2ccccc2)c(=O)n1Cc1ccc(F)c(F)c1)N1CCNCC1` [Example 52, 1-(3,4-Difluorobenzyl)-3,4-diphenyl-5-(piperazine-1-carbonyl)-1H-imidazol-2(3H)-one]: the IC50 lay within 100 to 500 nM.

Take `O=C(c1c(-c2ccccc2)n(-c2ccccc2)c(=O)n1CC1CCOCC1)N1CCNCC1` [Example 53, 1,5-Diphenyl-4-(piperazine-1-carbonyl)-3-((tetrahydro-2H-pyran-4-yl)methyl)-1H-imidazol-2(3H)-one]: the IC50 was above 1000 nM.

Consider `Cn1c(C(=O)N2CCNCC2)c(-c2ccccc2)n(-c2ccccc2)c1=O` [Example 54, 1-Methyl-3,4-diphenyl-5-(piperazine-1-carbonyl)-1H-imidazol-2(3H)-one], for which the half-maximal inhibitory concentration (IC50) was above 1000 nM.

Regarding `Cn1c(C(=O)N2CCNC[C@H]2Cc2ccccc2)c(-c2ccccc2)n(-c2cccc(N3CCOCC3)c2)c1=O` [Example 55, (R)-4-(2-Benzylpiperazine-1-carbonyl)-3-methyl-1-(3-morpholinophenyl)-5-phenyl-1H-imidazol-2(3H)-one], the IC50 was in the range of 100 to 500 nM.

For `O=C(c1c(-c2ccccc2)n(-c2cccc(N3CCOCC3)c2)c(=O)n1Cc1ccccc1)N1CCNCC1` [Example 56, 1-Benzyl-3-(3-morpholinophenyl)-4-phenyl-5-(piperazine-1-carbonyl)-1H-imidazol-2(3H)-one], the concentration for half-maximal inhibition (IC50) lay within 100 to 500 nM.

On to `O=C(c1cccc(Cn2c(C(=O)N3CCNCC3)c(-c3ccccc3)n(-c3cccc(N4CCOCC4)c3)c2=O)c1)N1CCOCC1` [Example 57, 1-(3-(Morpholine-4-carbonyl)benzyl)-3-(3-morpholinophenyl)-4-phenyl-5-(piperazine-1-carbonyl)-1H-imidazol-2(3H)-one], for which the 50% inhibitory concentration (IC50) was above 1000 nM.

With `O=C(c1cccc(Cn2c(C(=O)N3CCNCC3)c(-c3ccccc3)n(-c3cccc(N4CCOCC4)c3)c2=O)c1)N1CCCCC1` [Example 58, 1-(3-Morpholinophenyl)-5-phenyl-4-(piperazine-1-carbonyl)-3-(3-(piperidine-1-carbonyl)benzyl)-1H-imidazol-2(3H)-one], the IC50 is above 1000 nM.

Regarding `O=C(O)COc1cccc(Cn2c(C(=O)N3CCNCC3)c(-c3ccccc3)n(-c3cccc(N4CCOCC4)c3)c2=O)c1` [Example 59, 2-(3-((3-(3-Morpholinophenyl)-2-oxo-4-phenyl-5-(piperazine-1-carbonyl)-2,3-dihydro-1H-imidazol-1-yl)methyl)phenoxy)acetic acid], the IC50 was above 1000 nM.

On to `Cn1c(C(=O)N2CCNCC2)c(-c2ccccc2)n(C2CCCCC2)c1=O` [Example 60, 1-Cyclohexyl-3-methyl-5-phenyl-4-(piperazine-1-carbonyl)-1H-imidazol-2(3H)-one], for which the IC50 was above 1000 nM.

`CC(C)NC(=O)NCCCn1c(C(=O)N2CCNCC2)c(-c2ccccc2)n(-c2cccc(N3CCOCC3)c2)c1=O` [Example 61, 1-Isopropyl-3-(3-(3-(3-morpholinophenyl)-2-oxo-4-phenyl-5-(piperazine-1-carbonyl)-2,3-dihydro-1H-imidazol-1-yl)propyl)urea]: the IC50 is above 1000 nM.

In the case of `C=CCn1c(C(=O)N2CCNCC2)c(-c2ccccc2)n(C2CCCCC2)c1=O` [Example 62, 1-Allyl-3-cyclohexyl-4-phenyl-5-(piperazine-1-carbonyl)-1H-imidazol-2(3H)-one], the IC50 was above 1000 nM.

As to `NC(=O)Cn1c(C(=O)N2CCNCC2)c(-c2ccccc2)n(C2CCCCC2)c1=O` [Example 63, 2-(3-Cyclohexyl-2-oxo-4-phenyl-5-(piperazine-1-carbonyl)-2,3-dihydro-1H-imidazol-1-yl)acetamide], the 50% inhibitory concentration (IC50) was above 1000 nM.

With `C=CCn1c(C(=O)N2CCNC[C@H]2Cc2ccccc2)c(-c2ccccc2)n(C2CCCCC2)c1=O` [Example 64, (R)-1-Allyl-5-(2-benzylpiperazine-1-carbonyl)-3-cyclohexyl-4-phenyl-1H-imidazol-2(3H)-one], the IC50 was below 100 nM.

Take `Cn1c(C(=O)N2CCNC[C@H]2Cc2ccccc2)c(-c2ccccc2)n(C2CCCCC2)c1=O` [Example 65, (R)-4-(2-Benzylpiperazine-1-carbonyl)-1-cyclohexyl-3-methyl-5-phenyl-1H-imidazol-2(3H)-one]: the IC50 was below 100 nM.

Take `COCCn1c(C(=O)N2CCNC[C@H]2Cc2ccccc2)c(-c2ccccc2)n(C2CCCCC2)c1=O` [Example 66, (R)-4-(2-Benzylpiperazine-1-carbonyl)-1-cyclohexyl-3-(2-methoxyethyl)-5-phenyl-1H-imidazol-2(3H)-one]: the IC50 is below 100 nM.

For the molecule `NC(=O)Cn1c(C(=O)N2CCNC[C@H]2Cc2ccccc2)c(-c2ccccc2)n(C2CCCCC2)c1=O` [Example 67, (R)-2-(5-(2-Benzylpiperazine-1-carbonyl)-3-cyclohexyl-2-oxo-4-phenyl-2,3-dihydro-1H-imidazol-1-yl)acetamide], the IC50 lay within 100 to 500 nM.

With `COC(=O)C(c1ccccc1)n1c(C(=O)N2CCNCC2)c(-c2ccccc2)n(C2CCCCC2)c1=O` (centres unmarked) [Example 68, Methyl 2-(3-cyclohexyl-2-oxo-4-phenyl-5-(piperazine-1-carbonyl)-2,3-dihydro-1H-imidazol-1-yl)-2-phenylacetate], the IC50 was above 1000 nM.

Regarding `CC(c1ccccc1)n1c(C(=O)N2CCNCC2)c(-c2ccccc2)n(C2CCCCC2)c1=O` (centres unmarked) [Example 69, 1-Cyclohexyl-5-phenyl-3-(1-phenylethyl)-4-(piperazine-1-carbonyl)-1H-imidazol-2(3H)-one], the IC50 was in the range of 100 to 500 nM.

Consider `O=C(c1c(-c2ccccc2)n(C2CCCCC2)c(=O)n1CCc1ccccc1)N1CCNCC1` [Example 71, 1-Cyclohexyl-3-phenethyl-5-phenyl-4-(piperazine-1-carbonyl)-1H-imidazol-2(3H)-one], for which the IC50 is 100 to 500 nM.

Consider `O=C(c1c(-c2ccccc2)n(C2CCCCC2)c(=O)n1Cc1cccc(-n2cccc2)c1)N1CCNCC1` [Example 72, 1-(3-(1H-Pyrrol-1-yl)benzyl)-3-cyclohexyl-4-phenyl-5-(piperazine-1-carbonyl)-1H-imidazol-2(3H)-one], for which the half-maximal inhibitory concentration (IC50) was 100 to 500 nM.

`Cc1ccccc1-n1c(-c2ccccc2)c(C(=O)N2CCNCC2)n(Cc2cccc(OCCOc3ccccc3)c2)c1=O` [Example 73, 1-(3-(2-Phenoxyethoxy)benzyl)-4-phenyl-5-(piperazine-1-carbonyl)-3-o-tolyl-1H-imidazol-2(3H)-one]: the IC50 is 100 to 500 nM.

For `O=C(c1c(-c2ccccc2)n(-c2cccc(N3CCOCC3)c2)c(=O)n1Cc1cccc(Oc2ccccc2)c1)N1CCNCC1` [Example 74, 1-(3-Morpholinophenyl)-3-(3-phenoxybenzyl)-5-phenyl-4-(piperazine-1-carbonyl)-1H-imidazol-2(3H)-one], the 50% inhibitory concentration (IC50) was below 100 nM.
